The values that follow come from ChEMBL document CHEMBL1201862, “PubChem BioAssay data set” (2004).

Structures are written as SMILES.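 A five-concentration, 48-hour dose response in 96-well plates underlies each endpoint, interpolated linearly between surrounding concentrations. GI50: concentration for 50% inhibition of growth.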 Activity calls are given as the source filed them. Rule as the data show it: active = GI50 up to about 1.1 µM and inactive = higher. Some results are limits rather than exact numbers.

Holding throughout (assay): DTP human tumour cell line panel, 48 h
For experiment [1], the system named is OVCAR-3.
For experiment [2], the system named is HCT-15.
The subject of experiment [3] is SK-OV-3.
In experiment [4] the test system is HOP-62.
Experiment [5] has as its system MDA-N.
The test system of experiment [6] is OVCAR-5.
Experiment [7] relates to SF-268.
For experiment [8], the system named is OVCAR-4.
For experiment [9], the system named is TK-10.
In experiment [10] the test system is UACC-257.
Experiment [11] has as its system KM12.
Experiment [12] concerns NCI-H460.
For experiment [13], the system named is DU-145.
In experiment [14] the test system is SF-539.
Experiment [15] has as its system HCC 2998.
Experiment [16] concerns MDA-MB-435.
Experiment [17] relates to NCI/ADR-RES.
In experiment [18] the test system is HL-60.

On to `Cc1c(C(=O)OCc2ccccc2)[n+]([O-])c2cc(Cl)c(Cl)cc2[n+]1[O-]`, for which the GI50 (commonly the concentration giving 50% growth inhibition) in experiment [1] is 12.2 µM (inactive); in [2], 16.1 µM; in experiment [3] it was 22.5 µM (inactive); in experiment [4], 14.2 µM (inactive); in [5] it was 20.6 µM (inactive); in experiment [6], 21.3 µM (inactive). Also, the GI50 is 17.5 µM (inactive) in experiment [7]; 14 µM (inactive) in [8]; 18.7 µM (inactive) in [9]; 15.1 µM (inactive) in experiment [10]; 10.5 µM (inactive) in experiment [11]; 14.2 µM (inactive) in experiment [12]. In addition, the GI50 in [13] was 14.5 µM (inactive); in experiment [14], 22.5 µM (inactive); in [15] it was 15.2 µM (inactive); in experiment [16], 19.8 µM (inactive); in experiment [17] it was 18.2 µM (inactive); in experiment [18] it was 11.7 µM (inactive).
Turning to `Nc1ncnc2nc(N3CCN(CCO)CC3)[nH]c12`, the GI50 in experiment [1] is > 100 µM (inactive); in experiment [2] it was above 100 µM; in experiment [3], > 100 µM (inactive); in experiment [4], > 100 µM (inactive); in [5] it was > 100 µM (inactive); in [6], > 100 µM (inactive). Further, the GI50 in [7], in [8], in experiment [9], in experiment [10], in experiment [11] and in experiment [12] was > 100 µM (inactive) throughout. In addition, the GI50 in experiment [13], in experiment [14], in experiment [15], in experiment [16], in [17] and in experiment [18] was > 100 µM (inactive) throughout.
Turning to `COc1ccc(/C=N/n2c(-c3ccccc3)n[nH]c2=O)c(OC)c1`, the GI50 in experiment [1] was 79.6 µM (inactive); in experiment [2], above 100 µM; in [3], 31.8 µM (inactive); in experiment [4], 29.8 µM (inactive); in [5], > 100 µM (inactive); in experiment [6], > 92.9 µM (inactive). In addition, the GI50 in [7] was 22.3 µM (inactive); in experiment [8] it was 27 µM (inactive); in experiment [9] it was 27 µM (inactive); in experiment [10], > 100 µM (inactive); in experiment [11], 45.8 µM (inactive); in experiment [12] it was 51.1 µM (inactive). Besides, the GI50 in experiment [13] is > 100 µM (inactive); in experiment [14], 28.4 µM (inactive); in [15] it was > 100 µM (inactive); in [16] it was > 100 µM (inactive); in experiment [17], 29.2 µM (inactive); in experiment [18] it was > 100 µM (inactive).
On to `CCc1[nH]nc(C(N)=O)c1/N=N/N(C)C`, for which the GI50 is > 100 µM (inactive) in [1]; 68.4 µM in experiment [2]; 91.6 µM (inactive) in experiment [3]; 82.6 µM (inactive) in [4]; > 100 µM (inactive) in experiment [5]; 47.2 µM (inactive) in [7]. In addition, the GI50 in experiment [8] is > 100 µM (inactive); in experiment [9], > 100 µM (inactive); in [10], > 100 µM (inactive); in experiment [11], 56.5 µM (inactive); in [13], 46.2 µM (inactive); in experiment [14], 78.7 µM (inactive). The GI50 in experiment [15] is > 100 µM (inactive); in experiment [16], 64.6 µM (inactive); in [17], 94.8 µM (inactive); in experiment [18] it was 9.62 µM (inactive).
In the case of `CCn1c(SCC(=O)NNC(=S)Nc2ccc(F)cc2)nc2ccccc2c1=O`, the GI50 in experiment [1] is > 100 µM (inactive); in [2], 74.6 µM; in [3], > 100 µM (inactive); in [4] it was > 100 µM (inactive); in experiment [5], > 100 µM (inactive); in [6] it was > 100 µM (inactive). Also, the GI50 in [7] is 79.8 µM (inactive); in experiment [8], 63 µM (inactive); in experiment [9], > 100 µM (inactive); in [10] it was > 100 µM (inactive); in experiment [11], > 100 µM (inactive); in [12], 0.472 µM (active). Further, the GI50 in experiment [13], in [14], in experiment [15], in experiment [16], in experiment [17] and in experiment [18] was > 100 µM (inactive) each time.
On to `CC1=NOC2(C1)C(=O)Nc1ccccc12` (stereo not drawn), for which the GI50 in experiment [1] is > 100 µM (inactive); in [2], above 100 µM; in experiment [3], > 100 µM (inactive); in experiment [4], > 100 µM (inactive); in experiment [5] it was > 100 µM (inactive); in experiment [6] it was > 100 µM (inactive). Moreover, the GI50 in experiment [7], in experiment [8], in [9], in [10], in experiment [11] and in experiment [12] was > 100 µM (inactive) throughout. Moreover, the GI50 in experiment [13] was > 100 µM (inactive); in experiment [14], > 100 µM (inactive); in experiment [15], > 100 µM (inactive); in experiment [16], > 100 µM (inactive); in experiment [17] it was 44.5 µM (inactive); in [18] it was > 100 µM (inactive).
As to `CC(C)SC(NC(=O)C1C(C)(C)CCC1(C)C)C(=O)O` (stereo not drawn), the GI50 is above 100 µM in experiment [2]; > 100 µM (inactive) in experiment [3]; > 100 µM (inactive) in experiment [4]; > 100 µM (inactive) in experiment [5]; > 100 µM (inactive) in [6]; > 100 µM (inactive) in experiment [7]. The GI50 in [9], in experiment [12], in experiment [13], in experiment [14], in [15] and in experiment [16] was > 100 µM (inactive) throughout. Also, the GI50 in [17] and in [18] was > 100 µM (inactive) in each case.
`C[C@]12CC[C@@H]3c4ccc(OC(=O)c5ccccc5)cc4CC[C@H]3[C@@H]1CCC2OC(=O)c1cccc2c(=O)c3ccccc3[nH]c12` (stereo partly drawn): the GI50 in [1] is 26.1 µM (inactive); in experiment [2] it was 13.1 µM; in experiment [3], 30.4 µM (inactive); in [4] it was 22.3 µM (inactive); in [5], 11.1 µM (inactive); in experiment [6] it was 18.2 µM (inactive). In addition, the GI50 in experiment [7] is 22.8 µM (inactive); in experiment [8], 15.6 µM (inactive); in experiment [9] it was 19.1 µM (inactive); in experiment [10], 20.3 µM (inactive); in experiment [11] it was 15.4 µM (inactive); in experiment [12] it was 17.4 µM (inactive). The GI50 in experiment [13] was 19.8 µM (inactive); in experiment [14], 16.6 µM (inactive); in experiment [15], 15.2 µM (inactive); in experiment [16] it was 3.77 µM (inactive); in experiment [17] it was 18 µM (inactive); in experiment [18] it was 18.8 µM (inactive).
In the case of `O=C(Cc1ccccc1)N/N=C(/CCN1CCCC1)CC(c1ccccc1)c1c(O)c2ccccc2oc1=O` (stereo not drawn), the GI50 in experiment [1] was > 100 µM (inactive); in experiment [2], 72.4 µM; in experiment [3] it was > 100 µM (inactive); in [5] it was > 100 µM (inactive); in experiment [6], > 100 µM (inactive); in experiment [7] it was > 100 µM (inactive). For the same compound, the GI50 in experiment [8] was > 100 µM (inactive); in experiment [9], > 100 µM (inactive); in [10] it was 37.2 µM (inactive); in [11] it was > 100 µM (inactive); in [13], > 100 µM (inactive); in experiment [14] it was > 100 µM (inactive). The GI50 was 95.1 µM (inactive) in [15], > 100 µM (inactive) in experiment [16], 55.8 µM (inactive) in experiment [17] and 39.8 µM (inactive) in experiment [18].
For `O=C(NCCCCN(CCCNC(=O)C(F)(F)F)Cc1ccc2ccccc2c1)C(F)(F)F`, the GI50 in experiment [2] is 17.3 µM; in experiment [3] it was 23 µM (inactive); in experiment [5], 17.4 µM (inactive); in experiment [6] it was 17.2 µM (inactive); in experiment [7], 16 µM (inactive); in experiment [8], 17.6 µM (inactive). Also, the GI50 in experiment [9] is 20.4 µM (inactive); in [10], 17.5 µM (inactive); in [11], 17.5 µM (inactive); in experiment [12], 16.4 µM (inactive); in experiment [13], 21 µM (inactive); in experiment [14], 16.3 µM (inactive). The GI50 in experiment [15] was 13.9 µM (inactive); in experiment [16] it was 19.3 µM (inactive); in experiment [17], 14.5 µM (inactive); in experiment [18], 65.2 µM (inactive).
Regarding `CC(C)N1[C@@H]2CCCC[C@H]2N(C(C)C)P1(=O)C(=O)/C=C/c1ccccc1`, the GI50 in experiment [1] was 2.38 µM (inactive); in experiment [2] it was 1.92 µM; in experiment [4] it was 3.88 µM (inactive); in [5], 1.83 µM (inactive); in experiment [6], 2.37 µM (inactive); in experiment [7], 2.44 µM (inactive). In addition, the GI50 is 1.67 µM (inactive) in [8]; 3.51 µM (inactive) in experiment [9]; 3.08 µM (inactive) in experiment [10]; 3.23 µM (inactive) in [11]; 2.97 µM (inactive) in [12]; 2.08 µM (inactive) in [13]. Besides, the GI50 in [14] was 1.82 µM (inactive); in [15], 2.18 µM (inactive); in experiment [16] it was 1.76 µM (inactive); in experiment [17] it was 2.02 µM (inactive); in experiment [18], 1.65 µM (inactive).
Regarding `CC(C)(C)OC(=O)C1CC[C@@H](CC(=O)Oc2ccc([N+](=O)[O-])cc2)N1` (stereo partly drawn), the GI50 in experiment [1] is > 100 µM (inactive); in experiment [2], above 100 µM; in [3], > 100 µM (inactive); in [5], > 100 µM (inactive); in experiment [6], > 100 µM (inactive); in experiment [8], > 100 µM (inactive). Further, the GI50 in experiment [9], in experiment [10], in [11], in experiment [12], in experiment [13] and in experiment [14] was > 100 µM (inactive) each time. The GI50 in experiment [15], in experiment [16], in experiment [17] and in experiment [18] was > 100 µM (inactive) throughout.
